Results: patent US11492597B2, “Method for establishing colorectal cancer HK2 reporter gene cell line” (Guangdong Medical University, priority 2018, dated 2022)

Tests used:
HK2 = assay: 2-MeOE2 treatment of HK2 reporter cell line, transcriptional level of HK2; assay type: cell-based; conditions: HK2 cell line treated for 24 h or 48 h, 10 uM, relative transcriptional level vs untreated control
Description: (§1) 2-Methoxyestradiol (2-MeOE2) is an HIF inhibitor, and at present, has entered an anti-tumor clinical second-stage test stage. […] The HK2 cell line is treated for 24 h or 48 h in 2-MeOE2 (10 uM), and the relative expression changes of the transcriptional level of HK2 and EGFP and those untreated as a control are analyzed. […] The experimental result further proves that the colorectal cancer HK2 reporter gene cell line constructed in the present invention can be used for screening and evaluating related anticancer drugs.

EGFP = assay: 2-MeOE2 treatment of HK2 reporter cell line, transcriptional level of EGFP reporter; assay type: cell-based; conditions: HK2 cell line treated for 24 h or 48 h, 10 uM, relative transcriptional level vs untreated control
Description: as §1

SMILES: COc1cc2c(cc1O)CC[C@@H]1[C@@H]2CC[C@]2(C)[C@@H](O)CC[C@@H]12 [2-MeOE2, 2-Methoxyestradiol]
- expression level of HK2 (HK2): obviously inhibited
- expression of the EGFP (EGFP): synergistically inhibited
